Measurements from article PMC11435065, “Inhibition of P-Glycoprotein Asymmetrically Alters the In Vivo Exposure Profile of SGC003F: A Novel Guanylate Cyclase Stimulator” (Pharmaceuticals, 2024).
Like-named read-outs stand apart in the source and are kept apart here.

How the values were obtained:
[1] = Plasma pharmacokinetics of SGC003F in rats with or without tariquidar; assay type: in vivo, rat; conditions: for clearance / AUC(0-t) / Vd / Tmax / half-life / Cmax / bioavailability: male, Sprague-Dawley, plasma; for Vd: read-out: Vss; for bioavailability: read-out: F (bioavailability)
Method: Adult Sprague Dawley rats (230–280 g) were obtained from Beijing Vital River Laboratory Animal Technology Co., Ltd. (Beijing, China). The animals were kept in a controlled environment with a 12 h light/dark cycle and stable temperature, and had free access to food and water, adapting for one week. All animal procedures were approved by the Experimental Animal Ethics Committee of Beijing Institute of Pharmacology and Toxicology (IACUC-DWZX-2023-P718).
SGC003F and tariquidar were dissolved in a solvent consisting of 11% isopropyl myristate, 74% polyethylene glycol 35 castor oil, and 15% diethylene glycol monoethyl ether. The stock solution concentrations were 1 mg/mL for SGC003F and 22.5 mg/mL for tariquidar. Next, the stock solution of SGC003F and tariquidar were diluted with saline at a ratio of 1:9 and 1:3.5, respectively, to achieve a working solution of SGC003F (0.1 mg/mL) and tariquidar (5 mg/mL) for oral and intravenous administration in rats.
Thirty-six male SD rats were randomly divided into 6 groups, with 6 rats in each group. Group I: SGC003F (p.o., 1 mg/kg) + blank vehicle (control group); Group II: SGC003F (p.o., 1 mg/kg) + tariquidar (i.v., 7.5 mg/kg); Group III: SGC003F (p.o., 1 mg/kg) + tariquidar (p.o., 15 mg/kg); Group IV: SGC003F (i.v., 1 mg/kg) + blank vehicle; Group V: SGC003F (i.v., 1 mg/kg) + tariquidar (i.v., 7.5 mg/kg); Group VI: SGC003F (i.v., 1 mg/kg) + tariquidar (p.o., 15 mg/kg). Oral administration required fasting for 12 h in advance and free access to water. At 0.033 (i.v.), 0.083, 0.25, 0.5, 1, 2, 4, 8, 12, and 24 h after administration, 100 μL of blood was collected intravenously and placed in heparin tubes. All blood samples were centrifuged at 2500× g for 10 min at 4 °C, and plasma was stored at −40 °C for analysis.
The main pharmacokinetic parameters, such as time to peak (tmax), half-life (t1/2), peak concentration (Cmax), and area under the curve (AUC), bioavailability (F), were calculated using a non-compartmental model with WinNonlin 8.1 software (Princeton, NJ, USA).
The elimination rate constant (ke or λz) was determined from the terminal phase of the concentration–time curve by using a semilogarithmic plot. Furthermore, the half-life (t1/2) was calculated according to this equation t1/2 = 0.693/ke(1)
Bioavailability (F) was calculated according to Equation (2):F = Dose(i.v.) × AUC(p.o.)/Dose(p.o.) × AUC(i.v.) × 100%(2)

[2] = Bidirectional transport across Caco-2 monolayer cells; assay type: in vitro ADME; conditions: human, Caco-2 cells, read-out: ER value (efflux ratio)
Method: LLC-PK1-MDR1, LLC-PK1-MOCK, and Caco-2 cells were seeded in 24-well Transwell cell plates at optimized densities. The medium was changed every other day for the LLC-PK1 cells and every day for the Caco-2 cells. The LLC-PK1 cells were cultured continuously for 4–7 days, while the Caco-2 cells were cultured continuously for 28–35 days in preparation for transport experiments. Prior to the experiment, TEER (transepithelial electrical resistance) values were measured using a cell resistance meter. For electrical measurements, two electrodes were used, with one electrode placed in the upper compartment and the other in the lower compartment and the electrodes were separated by the cellular monolayer. The measurement procedure included measuring the blank resistance (Rblank) of the semipermeable membrane only (without cells) and measuring the resistance across the cell layer on the semipermeable membrane (Rtotal). TEER values were achieved by calculating as TEER = (Rtotal − Rblank) × Marea in the unit of Ω·cm^2. […]
The apparent permeability rate value (Papp) of the monolayer cells was calculated according to Equation (5) Papp = (dQ/dt)/(A × C0)(5) where dQ/dt is the transport rate (µmol·s^−1); A is the insert surface area (0.33 cm^2); C0 is the initial concentration of the compound (µM).
Efflux rate (ER) was calculated according to Equation (6):ER = Papp B-A/PappA-B(6)

[3] = rat, po, 1 mg/kg, SGC003F p.o. 1 mg/kg, single
[4] = rat, po, 1 mg/kg, SGC003F p.o. 1 mg/kg, with tariquidar i.v. 7.5 mg/kg
[5] = rat, po, 1 mg/kg, SGC003F p.o. 1 mg/kg, with tariquidar p.o. 15 mg/kg
[6] = rat, po, 1 mg/kg, rat plasma, SGC003F p.o. 1 mg/kg, single
[7] = rat, po, 1 mg/kg, rat plasma, SGC003F p.o. 1 mg/kg, with tariquidar i.v. 7.5 mg/kg
[8] = rat, po, 1 mg/kg, rat plasma, SGC003F p.o. 1 mg/kg, with tariquidar p.o. 15 mg/kg
[9] = rat plasma, SGC003F p.o. 1 mg/kg, tariquidar i.v. 7.5 mg/kg
[10] = rat plasma, SGC003F p.o. 1 mg/kg, tariquidar p.o. 15 mg/kg
[11] = rat, SGC003F i.v. 1 mg/kg, tariquidar i.v. 7.5 mg/kg
[12] = rat, SGC003F i.v. 1 mg/kg, tariquidar p.o. 15 mg/kg
[13] = rat, SGC003F p.o. 1 mg/kg, tariquidar i.v. 7.5 mg/kg
[14] = rat, SGC003F p.o. 1 mg/kg, tariquidar p.o. 15 mg/kg

Structure (SMILES): COC(=O)Nc1c(N)nc(-c2nn(Cc3sccc3F)c3ncc(F)cc23)nc1N [SGC003F]
- clearance ([1]; rat, iv, 1 mg/kg, SGC003F i.v. 1 mg/kg, single): 2.18 mL/min/kg
- clearance ([1]; rat, iv, 1 mg/kg, SGC003F i.v. 1 mg/kg, with tariquidar i.v. 7.5 mg/kg): 2.03 mL/min/kg
- clearance ([1]; rat, iv, 1 mg/kg, SGC003F i.v. 1 mg/kg, with tariquidar p.o. 15 mg/kg): 1.49 mL/min/kg
- AUC(0-t) ([1]; rat, iv, 1 mg/kg, rat plasma, SGC003F i.v. 1 mg/kg, single): 7620 ± 560 ng·h/mL
- AUC(0-t) ([1]; rat, iv, 1 mg/kg, rat plasma, SGC003F i.v. 1 mg/kg, with tariquidar i.v. 7.5 mg/kg): 8170 ± 530 ng·h/mL
- AUC(0-t) ([1]; rat, iv, 1 mg/kg, rat plasma, SGC003F i.v. 1 mg/kg, with tariquidar p.o. 15 mg/kg): 11300 ng·h/mL
- Vd ([1]; rat, iv, 1 mg/kg, rat, SGC003F i.v. 1 mg/kg, single): 0.419 ± 0.0318 L/kg
- Vd ([1]; rat, iv, 1 mg/kg, rat, SGC003F i.v. 1 mg/kg, with tariquidar i.v. 7.5 mg/kg): 0.422 ± 0.0328 L/kg
- Vd ([1]; rat, iv, 1 mg/kg, rat, SGC003F i.v. 1 mg/kg, with tariquidar p.o. 15 mg/kg): 0.382 ± 0.0266 L/kg
- Tmax [1, 3]: 1.33 ± 0.52 h
- half-life [1, 3]: 3.45 ± 0.46 h
- Tmax [1, 4]: 1.5 ± 0.55 h
- half-life [1, 4]: 4.31 ± 0.91 h
- Tmax [1, 5]: 2.33 ± 1.37 h
- half-life [1, 5]: 4.35 ± 0.35 h
- AUC(0-t) [1, 6]: 3540 ± 610 ng·h/mL
- Cmax [1, 6]: 673 ± 187 ng/mL
- AUC(0-t) [1, 7]: 5690 ± 1080 ng·h/mL
- Cmax [1, 7]: 722 ± 111 ng/mL
- AUC(0-t) [1, 8]: 10800 ng·h/mL
- Cmax [1, 8]: 1430 ± 250 ng/mL
- bioavailability ([1]; rat, po, 1 mg/kg, rat, SGC003F p.o. 1 mg/kg, single): 46.4%
- bioavailability ([1]; rat, po, 1 mg/kg, rat, SGC003F p.o. 1 mg/kg, with tariquidar i.v. 7.5 mg/kg): 69.7%
- bioavailability ([1]; rat, po, 1 mg/kg, rat, SGC003F p.o. 1 mg/kg, with tariquidar p.o. 15 mg/kg): 95.1%
- bioavailability ([1]; rat, po, rat, SGC003F p.o. 1 mg/kg, with tariquidar p.o. 15 mg/kg): 95%
- AUC0-t, Ratio 1 (with Tar (i.v.)/single) ([1]; rat plasma, SGC003F i.v. 1 mg/kg, tariquidar i.v. 7.5 mg/kg): 1.07
- AUC0-t, Ratio 2 (with Tar (p.o.)/single) ([1]; rat plasma, SGC003F i.v. 1 mg/kg, tariquidar p.o. 15 mg/kg): 1.49
- AUC0-t, Ratio 1 (with Tar (i.v.)/single) [1, 9]: 1.61
- Cmax, Ratio 1 (with Tar (i.v.)/single) [1, 9]: 1.07
- AUC0-t, Ratio 2 (with Tar (p.o.)/single) [1, 10]: 3.05
- Cmax, Ratio 2 (with Tar (p.o.)/single) [1, 10]: 2.13
- CL, Ratio 1 (with Tar (i.v.)/single) [1, 11]: 0.93
- Vss, Ratio 1 (with Tar (i.v.)/single) [1, 11]: 1.00
- CL, Ratio 2 (with Tar (p.o.)/single) [1, 12]: 0.68
- Reduction of CL versus control group [1, 12]: 32%
- Vss, Ratio 2 (with Tar (p.o.)/single) [1, 12]: 0.91
- F, Ratio 1 (with Tar (i.v.)/single) [1, 13]: 1.50
- Tmax, Ratio 1 (with Tar (i.v.)/single) [1, 13]: 1.13
- t1/2, Ratio 1 (with Tar (i.v.)/single) [1, 13]: 1.25
- F, Ratio 2 (with Tar (p.o.)/single) [1, 14]: 2.05
- Tmax, Ratio 2 (with Tar (p.o.)/single) [1, 14]: 1.75
- t1/2, Ratio 2 (with Tar (p.o.)/single) [1, 14]: 1.26
- efflux ratio at 2 h, 2 µM [2]: 7.2
